Series [1] has as its system EBOV (HIV-1/EBOV-GP) pseudotyped virus. The conditions noted are these: for IC50: read-out: IC50, Pseudotyped (no detergent).
Series [2] deals with EBOV trVLP.
Series [3] in a line: in vitro. The conditions noted are these: human, CC50, Pseudotyped.
Series [4] in a line: in vitro. To be noted: human.
The test system of series [5] is EBOV (HIV-1/EBOV-GP) pseudotyped virus. The series is described as follows: microbe, parasite or virus in culture. The conditions noted are these: Zaire ebolavirus, HEK-293T.
Series [6] relates to EBOV trVLP. The series is described as follows: microbe, parasite or virus in culture. The conditions noted are these: Zaire ebolavirus, HEK-293T, read-out: IC50, trVLP.
The test system of the next series is 293T cells. To be noted: for Cytotoxicity in single-concentration screen: 25 μM; for CC50: human.
Series [7] deals with steroidogenic acute regulatory protein. The conditions noted are these: cited from earlier work.
The subject of the next series is EBOV-pseudotyped virus. Format: cell-based, Zaire ebolavirus.
In series [8] the test system is VSV (HIV-1/VSV-G) pseudotyped virus. Format: cell-based, vesicular stomatitis virus.
Setting [9] is: read-out: IC50, Pseudotyped (no detergent).

Results on twelve molecules are retold here after paper PMC6639268 (Journal of Virology, 2019).

Structures are written as SMILES. Like-named read-outs stand apart in the source and are kept apart here.

A word on the IC50: it is the point on the concentration scale where inhibition reaches its midpoint.

As for `COc1ccc(OC)c(CN2CCC[C@@H](c3ccnc(SCCN4CCCC4)n3)C2)c1` [Compound S36], the “SI (CC50/IC50), Pseudotyped” value in [1] is 10.6. Besides, the IC50 in series [1] was 6.29 ± 1.55 µM; in [5] (setting [9]), less than 10 µM; in series [5] (read-out: IC50 with Tween 80) it was 4.83 ± 1.11 µM; with EBOV trVLP [6], 3.19 µM. Also, the “SI (CC50/IC50), trVLP” value with EBOV trVLP [2] came out at 5.2. In addition, the results for the CC50 in “in vitro [3]” and in “in vitro [4]” were 66.9 ± 33.3 µM and 16.5 µM, respectively.
Consider `CCOc1ccc([C@@H](O)Cn2c(=N)n(CCN3CCCCC3)c3ccccc32)cc1` [Compound S03], for which the IC50 in series [1] was 5.79 ± 6.7 µM; in series [5] (setting [9]) it was less than 10 µM; in series [5] (read-out: IC50 with Tween 80) it was 5.21 µM; in the series with EBOV trVLP [6], 4.04 µM. Moreover, the “SI (CC50/IC50), trVLP” value in the series on EBOV trVLP [2] came to 14.3. Also, the values for the CC50 in “in vitro [3]” and in the series “in vitro [4]” were 80 ± 45.5 µM and 57.6 ± 24.2 µM, respectively.
On to `Cc1ccc(C(=O)N/C(=C/c2ccc(-c3ccc(Br)cc3)o2)C(=O)NCCCN(C)C)cc1` [Compound I01], for which the “Normalized luciferase signal (infectivity signal per cell as a fraction of the maximum)” value in series [1] was “most activity”. For the same molecule, the “SI (CC50/IC50), Pseudotyped” value in series [1] was 8.2. In addition, the “Cytotoxicity in single-concentration screen” value with 293T cells is recorded as “most cytotoxic”. Also, the CC50 is 14.6 ± 5.86 µM in the series with 293T cells, 11 to 15 µM in the series “in vitro [3]” and 9.72 ± 3.23 µM in the series “in vitro [4]”. Further, in the series on EBOV trVLP [2], the “SI (CC50/IC50), trVLP” value is 8.8. The “Activity on steroidogenic acute regulatory protein” value in [7] is “nonspecific inhibitor”. Moreover, the IC50 in [5] (read-out: IC50 with Tween 80) was determined as 2.48 ± 1.35 µM; in the series on EBOV trVLP [6] it was 1.1 ± 0.99 µM.
For the molecule `CNC1CCN(c2nc3cc(OC)ccc3cc2CNCCc2ccc(OC)cc2)CC1` [Compound S49], the IC50 in series [1] was 5.06 µM; in series [5] (setting [9]) it was less than 10 µM; in series [5] (read-out: IC50 with Tween 80), 17.8 ± 10.6 µM; in the series with EBOV trVLP [6], 3.81 ± 3.16 µM. Moreover, in the series with EBOV trVLP [2], the “SI (CC50/IC50), trVLP” value came out at 5.9. For the same molecule, the values for the CC50 in “in vitro [3]” and in the series “in vitro [4]” were 66.6 ± 34 µM and 22.4 µM, respectively.
`CCOC(=O)[C@H]1O[C@@H]1C(=O)N[C@@H](CC(C)C)C(=O)NCCC(C)C` [Compound E64d, E64d]: in the series with EBOV-pseudotyped virus, the “Time point up to which maximum inhibition occurred” value was no more than 80 min.
As to `CCN1CCC[C@@H]1CN(CC1CCN(COC)CC1)C(=O)CCc1ccc(F)cc1` [Compound S42], the “Impact on cell viability (cytotoxicity curves)” value in the series with 293T cells was “minimal impact on cell viability”. Also, in the series on EBOV trVLP [2], the “SI (CC50/IC50), trVLP” value came to 11.2. For the same molecule, the CC50 in the series “in vitro [4]” came out at 124 ± 71.2 µM. Also, the IC50 in series [5] (setting [9]) was 11.6 ± 9.95 µM; in [5] (read-out: IC50 with Tween 80), 36.5 ± 16.6 µM; with EBOV trVLP [6], 11.1 ± 12.9 µM.
Regarding `CC(C)N[C@H]1C[C@@H](C(=O)CN2CCN(c3cccc(C(F)(F)F)c3)CC2)N(Cc2ccccc2)C1` [Compound S33], the “SI (CC50/IC50), Pseudotyped” value in [1] stood at 5.0. Besides, the IC50 in series [1] was 5.85 ± 5.2 µM; in series [5] (setting [9]), less than 10 µM; in series [5] (read-out: IC50 with Tween 80), 8.12 ± 2.37 µM; in the series on EBOV trVLP [6], 3.06 µM. Also, in the series on EBOV trVLP [2], the “SI (CC50/IC50), trVLP” value was 5.7. The CC50 in “in vitro [3]” was determined as 29 ± 12.4 µM; in “in vitro [4]”, 17.5 µM.
Take `CN1CCCC(CNC(=O)c2cc(NCc3ccccc3F)cc(S(=O)(=O)CNC(C)(C)C)c2)C1` (stereo not drawn) [Compound S58]: in series [8], the “Inhibitory activity against VSV-G-pseudotyped virus entry” value (“Inhibitory activity” for short) was “least average inhibitory activity against VSV-G”. Also, the “Impact on cell viability (cytotoxicity curves)” value with 293T cells is “minimal impact on cell viability”. Moreover, in the series with EBOV trVLP [2], the “SI (CC50/IC50), trVLP” value was 25.8. In the series “in vitro [4]”, the CC50 came out at 105 ± 57.1 µM. Also, the figures for the IC50 (in series [5] (setting [9]); in series [5] (read-out: IC50 with Tween 80); in the series on EBOV trVLP [6]) were 19.5 ± 18.9 µM, 40.5 ± 24.4 µM and 4.08 ± 0.88 µM, respectively.
Turning to `COc1ccc(CN2CCOc3cc(O[C@H]4CCCN(C)C4)cc(-c4ccc(C)s4)c3C2)c(O)c1` [Compound I49], the “Inhibitory activity” value in series [8] is “least average inhibitory activity against VSV-G”. For the same molecule, in series [1], the “Normalized luciferase signal (infectivity signal per cell as a fraction of the maximum)” value is recorded as “most activity”. Moreover, in [1], the “SI (CC50/IC50), Pseudotyped” value came out at 3.8. In addition, the IC50 in series [1] was 2.91 ± 0.63 µM; in series [5] (setting [9]) it was less than 5 µM; in [5] (read-out: IC50 with Tween 80) it was 3.12 ± 0.68 µM; in the series on EBOV trVLP [6] it was 2.67 ± 1.49 µM. Also, the “Cytotoxicity in single-concentration screen” value in the series on 293T cells is on record as “most cytotoxic”. Moreover, the CC50 with 293T cells was 11 ± 6.46 µM; in the series “in vitro [3]” it was 11 to 15 µM.
As for `CN(Cc1cccc(OCCN2CCN(S(=O)(=O)C3CCCCC3Cl)CC2)c1)CC1CCC(=O)N1` (stereo not drawn) [Compound I53], in [1], the “SI (CC50/IC50), Pseudotyped” value amounted to 3.0. Besides, the “SI (CC50/IC50), trVLP” value with EBOV trVLP [2] is listed as 3.5. Further, the CC50 turned out to be 110 ± 58 µM in “in vitro [3]” and 47.5 ± 31.8 µM in “in vitro [4]”. In addition, the results for the IC50 (in series [5] (setting [9]); in series [5] (read-out: IC50 with Tween 80); with EBOV trVLP [6]) were 36.7 µM, 35.3 µM and 13.6 ± 12.2 µM, respectively.
Consider `COc1ccc(CNCc2cc(F)cc(F)c2)cc1OC[C@H](O)CN1CCN(C)CC1` [Compound S29], for which, in series [8], the “Inhibitory activity” value was “least average inhibitory activity against VSV-G”. The “SI (CC50/IC50), Pseudotyped” value in [1] worked out at 4.4. For the same molecule, the IC50 in series [1] was 25.7 ± 9 µM; in the series with EBOV trVLP [2] (read-out: IC50, trVLP), 26.3 ± 17.1 µM; in series [5] (setting [9]), roughly 26 µM; in series [5] (read-out: IC50 with Tween 80), 5.03 ± 3.62 µM; in the series on EBOV trVLP [6], greater than 20 µM. Moreover, the “SI (CC50/IC50), trVLP” value in the series on EBOV trVLP [2] is 2.9. Also, the CC50 in “in vitro [3]” was 113 ± 82.2 µM; in “in vitro [4]”, 75.1 ± 24.4 µM.
Take `CN(C)[C@@H]1CCN(CC(c2ccccc2)c2ccccc2)C[C@@H]1CCC(=O)NCc1ccc2c(c1)OCO2` [Compound S31]: the “Inhibitory activity” value in [8] is listed as “least average inhibitory activity against VSV-G”. In addition, the “SI (CC50/IC50), Pseudotyped” value in series [1] was 8.9. Further, the IC50 in series [1] is 4.77 µM; in series [5] (setting [9]) it was less than 5 µM; in series [5] (read-out: IC50 with Tween 80) it was 4.68 ± 0.36 µM; in the series on EBOV trVLP [6] it was 2.41 µM. Besides, in the series on EBOV trVLP [2], the “SI (CC50/IC50), trVLP” value turned out to be 11.1. Moreover, the results for the CC50 in the series “in vitro [3]” and in the series “in vitro [4]” were 42.4 ± 15.4 µM and 26.7 µM, respectively.
